Data reported in US20220187282A1, “CARDIOMYOCYTE PROLIFERATION” (The Council of the Queensland Institute of Medical Research, priority 2019, published 2022).
“Also recorded” adds a separate entry of the source. Read-outs that look alike come from different tables or passages of the source.

Experiments:
Format in all cases: biochemical
kinases [1] = molecular target: kinases (Homo sapiens, UniProt Q13873); conditions: BMPR2 FRET-Lantha SP; Test Conc(μM) 1
kinases [2] = molecular target: kinases (Homo sapiens, UniProt P54753); conditions: EPHB3 FRET-Z-Lyte SP; Test Conc(μM):ATP Conc(μM) 1:75
kinases [3] = molecular target: kinases (Homo sapiens, UniProt P53667); conditions: LIMK1 FRET-Lantha SP; Test Conc(μM) 1
kinases [4] = molecular target: kinases (Homo sapiens, UniProt P57059); conditions: SIK1 FRET-Lantha SP; Test Conc(μM) 1
kinases [5] = molecular target: kinases (Homo sapiens, UniProt Q15418); conditions: RPS6KA1 (RSK1) FRET-Z-Lyte SP; Test Conc(μM):ATP Conc(μM) 1:5
kinases [6] = molecular target: kinases (Homo sapiens, UniProt O00418); conditions: EEF2K FRET-Z-Lyte SP; Test Conc(μM):ATP Conc(μM) 1:10
kinases [7] = molecular target: kinases (Homo sapiens, UniProt Q9H2X6); conditions: HIPK2 FRET-Z-Lyte SP; Test Conc(μM):ATP Conc(μM) 1:10
kinases [8] = molecular target: kinases (Homo sapiens, UniProt Q9BXA7); conditions: STK22D (TSSK1) FRET-Z-Lyte SP; Test Conc(μM):ATP Conc(μM) 1:10
kinases [9] = molecular target: kinases (Homo sapiens, UniProt Q99759); conditions: MAP3K3 (MEKK3) FRET-Lantha SP; Test Conc(μM) 1
kinases [10] = molecular target: kinases (Homo sapiens, UniProt Q9UK32); conditions: RPS6KA6 (RSK4) FRET-Z-Lyte SP; Test Conc(μM):ATP Conc(μM) 1:25
kinases [11] = molecular target: kinases (Homo sapiens, UniProt P36507)
kinases [12] = molecular target: kinases (Homo sapiens, UniProt Q86YV6); conditions: MYLK4 FRET-Lantha SP; Test Conc(μM) 1
kinases [13] = molecular target: kinases (Homo sapiens, UniProt P42681); conditions: TXK FRET-Z-Lyte SP; Test Conc(μM):ATP Conc(μM) 1:100
kinases [14] = molecular target: kinases (Homo sapiens, UniProt Q96BR1); conditions: SGKL (SGK3) FRET-Z-Lyte SP; Test Conc(μM):ATP Conc(μM) 1:10
kinases [15] = molecular target: kinases (Homo sapiens, UniProt Q07912); conditions: TNK2 (ACK) FRET-Lantha SP; Test Conc(μM) 1
kinases [16] = molecular target: kinases (Homo sapiens, UniProt P37023); conditions: ACVRL1 (ALK1) FRET-Lantha SP; Test Conc(μM) 1
kinases [17] = molecular target: kinases
kinases [18] = molecular target: kinases (Homo sapiens, UniProt Q6VAB6); conditions: KSR2 FRET-Z-Lyte SP; Test Conc(μM):ATP Conc(μM) 1:10
kinases [19] = molecular target: kinases (Homo sapiens, UniProt Q8WXR4); conditions: MYO3B FRET-Lantha SP; Test Conc(μM) 1
kinases [20] = molecular target: kinases (Homo sapiens, UniProt Q9NR20); conditions: DYRK4 FRET-Z-Lyte SP; Test Conc(μM):ATP Conc(μM) 1:5
kinases [21] = molecular target: kinases (Homo sapiens, UniProt Q14680); conditions: MELK FRET-Z-Lyte SP; Test Conc(μM):ATP Conc(μM) 1:25
kinases [22] = molecular target: kinases (Homo sapiens, UniProt Q04771); conditions: ACVR1 (ALK2) FRET-Lantha SP; Test Conc(μM) 1
kinases [23] = molecular target: kinases (Homo sapiens, UniProt Q9NYL2); conditions: ZAK FRET-Lantha SP; Test Conc(μM) 1
kinases [24] = molecular target: kinases (Homo sapiens, UniProt P68400); conditions: CSNK2A1 (CK2alpha1) Z-Lyte SP; Test Conc(μM):ATP Conc(μM) 1:5
kinases [25] = molecular target: kinases (Homo sapiens, UniProt Q8TCG2); conditions: PI4K2B *Mn* FRET-Adapta SP; Test Conc(μM):ATP Conc(μM) 1:10
kinases [26] = molecular target: kinases (Homo sapiens, UniProt Q13131)
kinases [27] = molecular target: kinases (Homo sapiens, UniProt P50613); conditions: CDK7/cyclin H/MNAT1 Adapta SP; Test Conc(μM):ATP Conc(μM) 1:150
kinases [28] = molecular target: kinases (Homo sapiens, UniProt Q7L7X3); conditions: TAOK1 FRET-Lantha SP; Test Conc(μM) 1
[29] = MAP2K2 (MEK2) FRET-Lantha SP, Test Conc(μM) 1
[30] = MAP2K2 (MEK2)Cascade Z-Lyte SP, Test Conc(μM):ATP Conc(μM) 1:100
[31] = LYN B FRET-Z-Lyte SP, Test Conc(μM):ATP Conc(μM) 1:25
[32] = PRKCB2 (PKC Beta II) Z-Lyte SP, Test Conc(μM):ATP Conc(μM) 1:200
[33] = AMPK (A1/B1/G2) FRET-Lantha SP, Test Conc(μM) 1
[34] = AMPK (A1/B1/G3) FRET-Lantha SP, Test Conc(μM) 1
[35] = AMPK (A1/B2/G1) FRET-Lantha SP, Test Conc(μM) 1
[36] = AMPK A1/B1/G1 FRET-Z-lyte SP, Test Conc(μM):ATP Conc(μM) 1:50
[37] = AMPK A1/B2/G2 FRET-Z-Lyte SP, Test Conc(μM):ATP Conc(μM) 1:10
[38] = AMPK A1/B2/G3 FRET-Z-Lyte SP, Test Conc(μM):ATP Conc(μM) 1:10

Sequence of kinases (Homo sapiens, UniProt Q13131) (Q13131 whole entry): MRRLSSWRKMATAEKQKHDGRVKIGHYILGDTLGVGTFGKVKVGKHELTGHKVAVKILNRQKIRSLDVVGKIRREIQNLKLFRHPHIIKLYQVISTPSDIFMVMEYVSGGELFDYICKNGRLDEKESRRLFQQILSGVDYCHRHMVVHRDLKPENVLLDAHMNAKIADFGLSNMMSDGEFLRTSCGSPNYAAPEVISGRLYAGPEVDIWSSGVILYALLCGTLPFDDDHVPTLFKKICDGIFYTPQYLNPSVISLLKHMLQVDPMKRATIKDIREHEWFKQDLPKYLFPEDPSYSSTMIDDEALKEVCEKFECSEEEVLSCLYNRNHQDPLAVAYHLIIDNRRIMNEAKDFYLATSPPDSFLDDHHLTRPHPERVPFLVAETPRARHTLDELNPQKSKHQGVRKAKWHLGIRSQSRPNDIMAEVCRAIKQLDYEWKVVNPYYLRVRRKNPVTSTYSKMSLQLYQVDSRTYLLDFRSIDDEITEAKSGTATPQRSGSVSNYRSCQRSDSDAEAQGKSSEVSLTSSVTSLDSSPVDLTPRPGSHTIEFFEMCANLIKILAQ
Sequence of kinases (Homo sapiens, UniProt P36507) (P36507 whole entry): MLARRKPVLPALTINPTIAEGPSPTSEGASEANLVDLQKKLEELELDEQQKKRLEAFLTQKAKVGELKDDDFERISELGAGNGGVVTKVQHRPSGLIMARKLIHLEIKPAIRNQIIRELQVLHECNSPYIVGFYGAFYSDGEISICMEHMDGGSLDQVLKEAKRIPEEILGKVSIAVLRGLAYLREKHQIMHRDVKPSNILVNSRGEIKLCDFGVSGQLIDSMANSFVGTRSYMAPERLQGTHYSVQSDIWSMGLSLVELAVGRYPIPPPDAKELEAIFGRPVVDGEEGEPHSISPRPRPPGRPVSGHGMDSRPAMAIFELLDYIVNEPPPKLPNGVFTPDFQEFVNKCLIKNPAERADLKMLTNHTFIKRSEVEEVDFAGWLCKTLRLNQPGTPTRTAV
Sequence of kinases (Homo sapiens, UniProt Q9NYL2) (Q9NYL2 whole entry): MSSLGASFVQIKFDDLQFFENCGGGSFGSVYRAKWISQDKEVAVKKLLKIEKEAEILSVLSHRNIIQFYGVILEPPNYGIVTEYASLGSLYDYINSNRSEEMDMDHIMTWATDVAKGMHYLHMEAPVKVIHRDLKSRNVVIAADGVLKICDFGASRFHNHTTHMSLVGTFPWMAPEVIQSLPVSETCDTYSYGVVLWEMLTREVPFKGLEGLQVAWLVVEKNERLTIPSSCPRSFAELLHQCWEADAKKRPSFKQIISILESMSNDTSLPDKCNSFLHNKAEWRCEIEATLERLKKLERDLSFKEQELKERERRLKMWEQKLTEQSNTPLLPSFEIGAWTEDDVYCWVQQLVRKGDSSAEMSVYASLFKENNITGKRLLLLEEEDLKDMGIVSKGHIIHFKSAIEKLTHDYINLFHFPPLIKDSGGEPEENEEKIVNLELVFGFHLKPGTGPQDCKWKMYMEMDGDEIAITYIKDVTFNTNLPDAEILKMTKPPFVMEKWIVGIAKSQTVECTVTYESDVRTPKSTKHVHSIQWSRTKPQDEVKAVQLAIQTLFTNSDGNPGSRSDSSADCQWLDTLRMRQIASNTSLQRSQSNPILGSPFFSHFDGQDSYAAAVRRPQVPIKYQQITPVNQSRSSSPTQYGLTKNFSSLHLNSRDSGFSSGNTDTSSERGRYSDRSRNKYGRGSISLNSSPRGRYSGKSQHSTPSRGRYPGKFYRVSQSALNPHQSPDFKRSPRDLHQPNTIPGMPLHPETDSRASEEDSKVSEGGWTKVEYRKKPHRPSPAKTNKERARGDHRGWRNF
Sequence of kinases (Homo sapiens, UniProt O00418) (O00418 whole entry): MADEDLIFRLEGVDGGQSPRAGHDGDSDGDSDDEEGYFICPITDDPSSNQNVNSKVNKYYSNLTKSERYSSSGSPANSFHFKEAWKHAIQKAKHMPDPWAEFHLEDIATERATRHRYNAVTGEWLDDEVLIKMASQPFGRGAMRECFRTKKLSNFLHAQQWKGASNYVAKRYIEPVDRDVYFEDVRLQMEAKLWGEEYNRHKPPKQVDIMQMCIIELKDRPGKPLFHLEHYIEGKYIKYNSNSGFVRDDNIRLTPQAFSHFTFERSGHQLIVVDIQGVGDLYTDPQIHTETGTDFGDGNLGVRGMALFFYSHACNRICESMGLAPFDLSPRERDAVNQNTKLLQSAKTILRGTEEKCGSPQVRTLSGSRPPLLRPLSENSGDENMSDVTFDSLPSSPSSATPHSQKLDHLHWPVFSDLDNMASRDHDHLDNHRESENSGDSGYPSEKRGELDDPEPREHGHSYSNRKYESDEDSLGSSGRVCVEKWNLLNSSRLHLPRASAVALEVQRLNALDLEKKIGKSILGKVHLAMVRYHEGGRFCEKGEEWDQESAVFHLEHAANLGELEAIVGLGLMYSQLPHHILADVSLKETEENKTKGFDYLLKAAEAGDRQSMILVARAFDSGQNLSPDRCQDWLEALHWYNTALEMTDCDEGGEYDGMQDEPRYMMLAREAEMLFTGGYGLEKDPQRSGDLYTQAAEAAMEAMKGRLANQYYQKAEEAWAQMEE
Sequence of kinases (Homo sapiens, UniProt P42681) (P42681 whole entry): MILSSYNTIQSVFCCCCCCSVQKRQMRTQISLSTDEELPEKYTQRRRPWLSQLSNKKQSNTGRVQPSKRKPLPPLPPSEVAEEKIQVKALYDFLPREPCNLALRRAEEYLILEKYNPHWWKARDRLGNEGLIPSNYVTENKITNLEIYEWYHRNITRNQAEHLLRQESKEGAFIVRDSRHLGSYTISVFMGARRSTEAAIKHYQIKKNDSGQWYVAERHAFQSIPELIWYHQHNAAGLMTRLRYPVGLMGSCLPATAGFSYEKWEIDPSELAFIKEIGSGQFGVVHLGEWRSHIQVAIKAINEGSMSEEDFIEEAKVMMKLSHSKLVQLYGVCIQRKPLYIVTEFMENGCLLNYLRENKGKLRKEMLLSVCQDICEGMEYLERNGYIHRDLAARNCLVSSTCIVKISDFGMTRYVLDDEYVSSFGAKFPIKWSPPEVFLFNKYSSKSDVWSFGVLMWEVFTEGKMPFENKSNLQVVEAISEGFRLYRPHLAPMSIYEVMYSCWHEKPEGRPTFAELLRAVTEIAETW
Sequence of kinases (Homo sapiens, UniProt Q99759) (Q99759 whole entry): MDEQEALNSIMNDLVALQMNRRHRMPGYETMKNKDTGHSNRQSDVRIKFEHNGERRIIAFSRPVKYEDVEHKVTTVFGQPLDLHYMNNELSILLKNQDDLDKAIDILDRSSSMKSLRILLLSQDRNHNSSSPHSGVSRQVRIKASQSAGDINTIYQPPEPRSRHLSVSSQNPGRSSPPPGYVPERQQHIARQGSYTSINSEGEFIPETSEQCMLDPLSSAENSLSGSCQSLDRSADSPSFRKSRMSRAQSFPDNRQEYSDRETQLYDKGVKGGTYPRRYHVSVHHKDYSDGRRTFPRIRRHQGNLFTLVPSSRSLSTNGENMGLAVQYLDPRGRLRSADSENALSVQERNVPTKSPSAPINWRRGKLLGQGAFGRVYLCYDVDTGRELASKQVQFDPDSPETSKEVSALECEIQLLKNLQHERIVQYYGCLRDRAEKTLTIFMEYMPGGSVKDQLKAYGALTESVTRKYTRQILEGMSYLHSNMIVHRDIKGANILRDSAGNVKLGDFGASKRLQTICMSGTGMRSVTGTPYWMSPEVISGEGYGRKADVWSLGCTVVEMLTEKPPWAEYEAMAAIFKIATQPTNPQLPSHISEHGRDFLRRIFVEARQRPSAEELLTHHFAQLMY
Sequence of kinases (Homo sapiens, UniProt P54753) (P54753 34-998): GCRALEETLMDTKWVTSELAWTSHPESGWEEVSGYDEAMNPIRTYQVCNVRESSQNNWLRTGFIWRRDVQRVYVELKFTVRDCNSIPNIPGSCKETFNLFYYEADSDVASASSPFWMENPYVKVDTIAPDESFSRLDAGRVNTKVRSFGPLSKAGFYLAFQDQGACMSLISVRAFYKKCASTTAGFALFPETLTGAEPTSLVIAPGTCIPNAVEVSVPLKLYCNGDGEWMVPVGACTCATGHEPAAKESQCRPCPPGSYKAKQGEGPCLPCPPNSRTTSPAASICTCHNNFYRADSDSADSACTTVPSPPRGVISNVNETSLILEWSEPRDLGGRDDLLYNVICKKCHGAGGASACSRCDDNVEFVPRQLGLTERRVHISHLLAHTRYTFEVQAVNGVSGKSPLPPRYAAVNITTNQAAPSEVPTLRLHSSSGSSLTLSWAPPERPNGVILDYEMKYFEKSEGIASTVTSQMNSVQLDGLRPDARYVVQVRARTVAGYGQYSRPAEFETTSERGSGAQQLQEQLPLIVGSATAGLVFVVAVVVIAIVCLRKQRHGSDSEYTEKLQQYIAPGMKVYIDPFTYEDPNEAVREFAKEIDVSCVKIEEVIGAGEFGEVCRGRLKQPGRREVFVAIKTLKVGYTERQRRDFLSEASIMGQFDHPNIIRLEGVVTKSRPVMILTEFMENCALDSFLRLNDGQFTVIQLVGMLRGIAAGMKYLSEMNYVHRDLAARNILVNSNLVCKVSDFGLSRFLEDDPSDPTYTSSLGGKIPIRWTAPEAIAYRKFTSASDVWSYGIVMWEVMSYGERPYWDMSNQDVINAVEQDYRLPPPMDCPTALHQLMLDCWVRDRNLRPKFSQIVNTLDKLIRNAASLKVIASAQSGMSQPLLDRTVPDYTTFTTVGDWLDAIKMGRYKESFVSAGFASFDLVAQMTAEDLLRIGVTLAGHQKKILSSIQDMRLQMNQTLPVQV
Sequence of kinases (Homo sapiens, UniProt Q86YV6) (Q86YV6 whole entry): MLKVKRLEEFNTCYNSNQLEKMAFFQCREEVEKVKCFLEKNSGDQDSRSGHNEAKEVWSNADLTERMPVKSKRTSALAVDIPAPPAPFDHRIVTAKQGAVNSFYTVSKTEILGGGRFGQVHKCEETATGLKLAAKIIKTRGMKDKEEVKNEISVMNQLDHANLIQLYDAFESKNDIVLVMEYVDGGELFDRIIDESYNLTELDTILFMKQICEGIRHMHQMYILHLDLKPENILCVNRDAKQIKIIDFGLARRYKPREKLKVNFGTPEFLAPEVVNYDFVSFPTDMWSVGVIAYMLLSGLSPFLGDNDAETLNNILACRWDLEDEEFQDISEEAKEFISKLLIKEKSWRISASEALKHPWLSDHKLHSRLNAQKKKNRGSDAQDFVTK

| SMILES | Mean Inhib (%) (kinases [1]) | Mean Inhib (%) (kinases [2]) | Mean Inhib (%) (kinases [3]) | Mean Inhib (%) (kinases [4]) | Mean Inhib (%) (kinases [5]) | Mean Inhib (%) (kinases [6]) | Mean Inhib (%) (kinases [7]) | Mean Inhib (%) (kinases [8]) | Mean Inhib (%) (kinases [9]) | Mean Inhib (%) (kinases [10]) | Mean Inhib (%) (kinases [11]; [29]) | Mean Inhib (%) (kinases [11]; [30]) | Mean Inhib (%) (kinases [12]) | Mean Inhib (%) (kinases [13]) | Mean Inhib (%) (kinases [14]) | Mean Inhib (%) (kinases [15]) | Mean Inhib (%) (kinases [16]) | Mean Inhib (%) (kinases [17]; [31]) | Mean Inhib (%) (kinases [17]; [32]) | Mean Inhib (%) (kinases [18]) | also measured |
| --- | --- | --- | --- | --- | --- | --- | --- | --- | --- | --- | --- | --- | --- | --- | --- | --- | --- | --- | --- | --- | --- |
| Cc1ccc(NC(=O)c2ccnc(N3CCOCC3)c2)cc1Nc1ccnc(N2CC(C)OC(C)C2)n1 (centres unmarked) [compound 3] | −4.1 | −0.5 | 2.2 | −0.5 | 14.8 | 5.5 | −3.2 | 18.8 | 5.2 | −9.0 | 1.7 | −1.0 | 5.1 | 5.1 | 13.3 | 0.2 | 7.2 | 16.3 | −11.1 | 3.9 | kinase specificity (kinase inhibition profile) (kinases [17]): strong specificity in targeting p38α; also recorded: very specific for p38α/β; Mean Inhib (%) (kinases [19]): 3.9%; Mean Inhib (%) (kinases [20]): 0.9%; Mean Inhib (%) (kinases [21]): 3.6%; Mean Inhib (%) (kinases [22]): 2.3%; Mean Inhib (%) (kinases [23]): 3.1%; Mean Inhib (%) (kinases [24]): 6.1%; Mean Inhib (%) (kinases [25]): −15.8%; Mean Inhib (%) (kinases [26]; [33]): 5.6%; Mean Inhib (%) (kinases [26]; [34]): −10.3%; Mean Inhib (%) (kinases [26]; [35]): 0.0%; Mean Inhib (%) (kinases [26]; [36]): 0.3%; Mean Inhib (%) (kinases [26]; [37]): 12.2%; Mean Inhib (%) (kinases [26]; [38]): 20.8%; Mean Inhib (%) (kinases [27]): −2.3%; Mean Inhib (%) (kinases [28]): −6.0% |
| Cc1cc(Oc2ccnc(Nc3ccc(S(N)(=O)=O)cc3)c2)c(-c2ccccn2)nc1C [compound 65] | 2.7 | 1.6 | 1.8 | 1.8 | 5.3 | 3.7 | −0.8 | 12.2 | 14.8 | −0.7 | −0.2 | 10.4 | 14.6 | 44.8 | 4.7 | 6.5 | 77.2 | 42.0 | −1.0 | 1.6 | Mean Inhib (%) (kinases [19]): 4.1%; Mean Inhib (%) (kinases [20]): −4.9%; Mean Inhib (%) (kinases [21]): 6.0%; Mean Inhib (%) (kinases [22]): 88.2%; Mean Inhib (%) (kinases [23]): 78.3%; Mean Inhib (%) (kinases [24]): 2.4%; Mean Inhib (%) (kinases [25]): 1.8%; Mean Inhib (%) (kinases [26]; [33]): 1.3%; Mean Inhib (%) (kinases [26]; [34]): −1.2%; Mean Inhib (%) (kinases [26]; [35]): 2.3%; Mean Inhib (%) (kinases [26]; [36]): −0.6%; Mean Inhib (%) (kinases [26]; [37]): −0.5%; Mean Inhib (%) (kinases [26]; [38]): −2.4%; Mean Inhib (%) (kinases [27]): −2.2%; Mean Inhib (%) (kinases [28]): 33.0% |
